Laboratory results from ChEMBL document CHEMBL3045426, “Synthesis, Antiviral and Antibacterial Activities of Isatin Mannich Bases” (Med Chem Res, 2005).
Converted amounts (≈) assume the structure as drawn.

How the values were obtained:
Vibrio cholerae [1] = experiment: Antimicrobial activity against Vibrio cholerae 01 after 18 to 20 hr by agar dilution method; format: functional; details: 1
Priestia megaterium = experiment: Antimicrobial activity against Bacillus megaterium after 18 to 20 hr by agar dilution method; format: functional
Enterobacter = experiment: Antimicrobial activity against Enterobacter after 18 to 20 hr by agar dilution method; format: functional
Citrobacter freundii = experiment: Antimicrobial activity against Citrobacter freundii after 18 to 20 hr by agar dilution method; format: functional
Salmonella enteritidis = experiment: Antimicrobial activity against Salmonella enterica subsp. enterica serovar Enteritidis after 18 to 20 hr by agar dilution method; format: functional
Salmonella typhimurium = experiment: Antimicrobial activity against Salmonella enterica subsp. enterica serovar Typhimurium after 18 to 20 hr by agar dilution method; format: functional
Proteus mirabilis = experiment: Antimicrobial activity against Proteus mirabilis after 18 to 20 hr by agar dilution method; format: functional
Proteus vulgaris = experiment: Antimicrobial activity against Proteus vulgaris after 18 to 20 hr by agar dilution method; format: functional
Edwardsiella tarda = experiment: Antimicrobial activity against Edwardsiella tarda after 18 to 20 hr by agar dilution method; format: functional
Escherichia coli = experiment: Antimicrobial activity against Escherichia coli NCTC 10418 after 18 to 20 hr by agar dilution method; format: functional
Salmonella typhi = experiment: Antimicrobial activity against Salmonella enterica subsp. enterica serovar Typhi after 18 to 20 hr by agar dilution method; format: functional
Salmonella paratyphi = experiment: Antimicrobial activity against Salmonella enterica subsp. enterica serovar Paratyphi A after 18 to 20 hr by agar dilution method; format: functional
Vibrio parahaemolyticus = experiment: Antimicrobial activity against Vibrio parahaemolyticus after 18 to 20 hr by agar dilution method; format: functional
Vibrio cholerae [2] = experiment: Antimicrobial activity against Vibrio cholerae 0139 after 18 to 20 hr by agar dilution method; format: functional; details: 139
Vibrio fluvialis = experiment: Antimicrobial activity against Vibrio fluvialis after 18 to 20 hr by agar dilution method; format: functional
Vibrio mimicus = experiment: Antimicrobial activity against Vibrio mimicus after 18 to 20 hr by agar dilution method; format: functional
Pseudomonas aeruginosa = experiment: Antimicrobial activity against Pseudomonas aeruginosa after 18 to 20 hr by agar dilution method; format: functional
Staphylococcus aureus = experiment: Antimicrobial activity against Staphylococcus aureus after 18 to 20 hr by agar dilution method; format: functional
Morganella morganii = experiment: Antimicrobial activity against Morganella morganii after 18 to 20 hr by agar dilution method; format: functional
Shigella boydii = experiment: Antimicrobial activity against Shigella boydii after 18 to 20 hr by agar dilution method; format: functional
Plesiomonas = experiment: Antimicrobial activity against Plesiomonas after 18 to 20 hr by agar dilution method; format: functional
Shigella sonnei = experiment: Antimicrobial activity against Shigella sonnei after 18 to 20 hr by agar dilution method; format: functional
Klebsiella pneumoniae [3] = experiment: Antimicrobial activity against Klebsiella pneumoniae after 18 to 20 hr by agar dilution method; format: functional
Klebsiella pneumoniae [4] = experiment: Antimicrobial activity against Klebsiella pneumoniae subsp. ozaenae after 18 to 20 hr by agar dilution method; format: functional
[5] = system: Mycobacterium tuberculosis; experiment: Antimycobacterial activity against Mycobacterium tuberculosis H37Rv ATCC 27294 at 6.25 ug/ml by MABA; format: functional
[6] = Cytotoxicity against Homo sapiens (human) HuH7 cells assessed as cell growth at 50 ug/ml after 3 days by Neutral red assay; format: cell-based, Huh-7; details: read-out: Activity
[7] = Cytotoxicity against Homo sapiens (human) CEM cells after 5 days by MTT assay; format: cell-based; details: CEM cells (CCRF-CEM)
[8] = system: Human immunodeficiency virus 1; experiment: Antiviral activity against Human immunodeficiency virus 1 IIIB infected CEM cells assessed as protection against viral infection after 6 days by XTT assay; format: functional, CCRF-CEM; set-up: concentration or dose not given beside the values
[9] = system: Human immunodeficiency virus 1; experiment: Antiviral activity against Human immunodeficiency virus 1 IIIB infected CEM cells assessed as inhibition of virus-induced cytopathicity after 6 days by XTT assay; format: functional, organism-based; details: CCRF-CEM, 144 h
[10] = Cytotoxicity against Homo sapiens (human) MT4 cells after 5 days by MTT assay; format: cell-based
[11] = system: Human immunodeficiency virus 1; experiment: Antiviral activity against Human immunodeficiency virus 1 IIIB infected MT4 cells assessed as inhibition of virus-induced cytopathicity after 5 days by MTT assay; format: functional, organism-based; details: MT4, 120 h
Hepatitis C virus = experiment: Antiviral activity against Hepatitis C virus BM4-5 infected in Huh7 cells assessed as inhibition of viral RNA replication by phosphor screening method; format: functional, Hepacivirus hominis, Huh-7
[12] = system: Human immunodeficiency virus 1; experiment: Antiviral activity against Human immunodeficiency virus 1 IIIB infected MT4 cells assessed as protection against viral infection after 5 days by MTT assay; format: functional; set-up: concentration or dose not given beside the values

SMILES | MIC (Vibrio cholerae [1]) [µg/mL] | MIC (Priestia megaterium) [µg/mL] | MIC (Enterobacter) [µg/mL] | MIC (Citrobacter freundii) [µg/mL] | MIC (Salmonella enteritidis) [µg/mL] | MIC (Salmonella typhimurium) [µg/mL] | MIC (Proteus mirabilis) [µg/mL] | MIC (Proteus vulgaris) [µg/mL] | MIC (Edwardsiella tarda) [µg/mL] | MIC (Escherichia coli) [µg/mL] | MIC (Salmonella typhi) [µg/mL] | MIC (Salmonella paratyphi) [µg/mL] | MIC (Vibrio parahaemolyticus) [µg/mL] | MIC (Vibrio cholerae [2]) [µg/mL] | MIC (Vibrio fluvialis) [µg/mL] | MIC (Vibrio mimicus) [µg/mL] | MIC (Pseudomonas aeruginosa) [µg/mL] | MIC (Staphylococcus aureus) [µg/mL] | MIC (Morganella morganii) [µg/mL] | MIC (Shigella boydii) [µg/mL] | further results
COc1cc(Cc2cnc(/N=C3\C(=O)N(CN4CCN(Cc5ccccc5)CC4)c4ccc(Cl)cc43)nc2N)cc(OC)c1OC | 4.88 (≈ 7.6 µM) | 625 (≈ 973 µM) | 625 (≈ 973 µM) | 625 (≈ 973 µM) | 625 (≈ 973 µM) | 625 (≈ 973 µM) | 625 (≈ 973 µM) | 625 (≈ 973 µM) | 625 (≈ 973 µM) | 625 (≈ 973 µM) | 625 (≈ 973 µM) | 625 (≈ 973 µM) | 9.76 (≈ 15.2 µM) | 625 (≈ 973 µM) | 625 (≈ 973 µM) | 2.44 (≈ 3.8 µM) | 1250 (≈ 1950 µM) | 625 (≈ 973 µM) | 625 (≈ 973 µM) | 39.1 (≈ 60.8 µM) | MIC (Plesiomonas): 39.1 µg/mL (≈ 60.8 µM); MIC (Shigella sonnei): 1250 µg/mL (≈ 1950 µM); MIC (Klebsiella pneumoniae [3]): 625 µg/mL (≈ 973 µM); MIC (Klebsiella pneumoniae [4]): 1250 µg/mL (≈ 1950 µM); inhibition at 6.25 µg/mL [5]: 50%; viability at 72 h, 50 ug/ml [6]: 79%; CC50 at 120 h [7]: 94.7 µg/mL (≈ 147 µM); Activity [8]: 22.33%; EC50 [9]: > 94.7 µg/mL; CC50 at 120 h [10]: 36.1 µg/mL (≈ 56.2 µM); EC50 [11]: > 36.1 µg/mL; inhibition (INH) (Hepatitis C virus): 66%; Activity [12]: 41.8%
COc1c(N2CCNC(C)C2)c(F)cc2c(=O)c(C(=O)O)cn(C3CC3)c12 (configuration not stated) [GATIFLOXACIN] | 0.02 (≈ 0.0533 µM) | 0.08 (≈ 0.213 µM) | 0.02 (≈ 0.0533 µM) | 0.08 (≈ 0.213 µM) | 0.02 (≈ 0.0533 µM) | 0.02 (≈ 0.0533 µM) | 0.02 (≈ 0.0533 µM) | 0.02 (≈ 0.0533 µM) | 0.02 (≈ 0.0533 µM) | 0.02 (≈ 0.0533 µM) | 0.02 (≈ 0.0533 µM) | 0.02 (≈ 0.0533 µM) | 9.77 (≈ 26 µM) | 0.02 (≈ 0.0533 µM) | 0.02 (≈ 0.0533 µM) | 0.15 (≈ 0.4 µM) | 0.15 (≈ 0.4 µM) | 0.02 (≈ 0.0533 µM) | 0.02 (≈ 0.0533 µM) | 1.22 (≈ 3.25 µM) | MIC (Plesiomonas): 2.44 µg/mL (≈ 6.5 µM); MIC (Shigella sonnei): 0.08 µg/mL (≈ 0.213 µM); MIC (Klebsiella pneumoniae [3]): 0.08 µg/mL (≈ 0.213 µM); MIC (Klebsiella pneumoniae [4]): 0.08 µg/mL (≈ 0.213 µM)
